Patent publication US20210395226A1, “SUBSTITUTED ARYL COMPOUND AND PREPARATION METHOD THEREFOR AND USE THEREOF” (SICHUAN KELUN-BIOTECH BIOPHARMACEUTICAL CO., LTD., priority 2018, published 2021)
Read-outs that look alike come from different tables or passages of the source.

Tests used:
[1] = target: T1, Adenosine A1 receptor (human) membrane (Homo sapiens, UniProt P30542); assay: Determination of competitive inhibition constant (Ki) for adenosine A1 receptor, [3H]-DPCPX radioligand; type: binding; details: 1.0 nM [3H]-DPCPX
T1 construct: purchased PerkinElmer ES-010-M400UA
T1 sequence (P30542 1-326): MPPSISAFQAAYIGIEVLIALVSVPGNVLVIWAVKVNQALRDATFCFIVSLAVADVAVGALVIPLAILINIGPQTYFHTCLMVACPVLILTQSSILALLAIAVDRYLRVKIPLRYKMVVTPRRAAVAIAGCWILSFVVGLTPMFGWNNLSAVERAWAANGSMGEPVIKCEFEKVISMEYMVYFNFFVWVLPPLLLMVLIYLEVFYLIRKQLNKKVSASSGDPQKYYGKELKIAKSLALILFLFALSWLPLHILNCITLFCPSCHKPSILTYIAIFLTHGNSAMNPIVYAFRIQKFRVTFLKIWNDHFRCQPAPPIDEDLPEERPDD
Description: (§1) Test Example 1: Determination of Competitive Inhibition Constant (Ki) for Adenosine A1 and A2a Receptors
[^3H]-DPCPX (PerkinElmer, NET974250UC),
Adenosine A1 receptor (human) membrane (PerkinElmer, ES-010-M400UA),
assay buffer for A1 (25 mM HEPES, 5 mM MgCl2, 1 mM CaCl2, 100 mM NaCl, pH7.4), used to dilute adenosine A1 receptor (human) membrane and [^3H]-DPCPX;
wash buffer for A1 (25 mM HEPES, 5 mM MgCl2, 1 mM CaCl2, 100 mM NaCl, pH7.4);
(§2) Adenosine A1 receptor membrane was diluted to 0.025 μg/μl with assay buffer for A1, and Adenosine A2a receptor membrane was diluted to 0.05 μg/μl with assay buffer for A2a, so as to obtain Adenosine A1 receptor membrane dilution and Adenosine A2a receptor membrane dilution.
(§3) The compound to be tested and CGS-15943 were diluted with DMSO, and 1 W of the compound to be tested, high value control (0.5% DMSO), low value control (1000 nM CGS-15943) were added to a 96-well plate, and 100 W of Adenosine A1 receptor membrane dilution (containing 2.5 μg of membrane) was added to each well of the 96-well plate to obtain A1 detection plate; following the same steps, 100 W of Adenosine A2a receptor membrane dilution (containing 5.0 μg membrane) was added to each well of the 96-well plate to obtain A2a detection plate.
(§4) To the A1 detection plate, 100 μl of radioisotope-labeled ligand [^3H]-DPCPX (diluted with assay buffer for A1, working concentration of which was 1.0 nM) was added; and to the A2a detection plate, 100 μl of radioisotope-labeled ligand [^3H]-CGS-21680 (diluted with assay buffer for A2a, working concentration of which was 6.0 nM) was added. The A1 and A2a detection plates were sealed with tape, and incubated at room temperature for 1 h and 2 h, respectively.
(§5) Unifilter-96 GF/C filter plates were prepared, 50 μl of 0.3% PEI was added to each well of the Unifilter-96 GF/C filter plates, and the resulting filter plates were incubated at room temperature for not less than 0.5 h.
(§6) After the incubation was completed, the reaction solution was transferred from the A1 detection plate and the A2a detection plate to two Unifilter-96 GF/C filter plates, and washed with pre-cooled wash buffer for A1 and wash buffer for A2a, and then the filter plates were dried, sealed at bottom, then 50 W of Microscint 20 fluid scintillation cocktail was added, and then the filter plates were sealed at top, and counted by MicroBeta2 Reader.
(§7) Inhibition rate %=100−(signal value of test well−signal average value of low value control)/(signal average value of high value control−signal average value of low value control)*100.
(§8) EXCEL XLfit was used to fit IC50.
(§9) The calculation formula for competitive inhibition constant (Ki) was: Ki=IC50/(1+concentration of isotope-labeled ligand/Kd), wherein Kd was the dissociation constant of the isotope-labeled ligand.

[2] = target: T2, Adenosine A2a receptor (human) membrane (Homo sapiens, UniProt P29274); assay: Determination of competitive inhibition constant (Ki) for adenosine A2a receptor, [3H]-CGS-21680 radioligand; type: binding; details: for Ki(A1)/Ki(A2a): selectivity ratio A1 over A2a
T2 construct: purchased PerkinElmer RBHA2AM400UA
Description: as §1
Adenosine A2a receptor (human) membrane (PerkinElmer, RBHA2AM400UA),
assay buffer for A2a (50 mM Tris-HCl, 10 mM MgCl2, 1 mM EDTA, pH7.4), used to dilute adenosine A2a receptor (human) membrane (human origin) and [^3H]-CGS-21680; and
wash buffer for A2a (50 mM Tris-HCl, 154 mM NaCl, pH7.4).
as §2, §3, §4, §5, §6, §7, §8, §9

[3] = human A2a receptor membrane, 6.0 nM [3H]-CGS-21680, read-out: Ki(A2a)

T2 sequence (P29274 whole entry): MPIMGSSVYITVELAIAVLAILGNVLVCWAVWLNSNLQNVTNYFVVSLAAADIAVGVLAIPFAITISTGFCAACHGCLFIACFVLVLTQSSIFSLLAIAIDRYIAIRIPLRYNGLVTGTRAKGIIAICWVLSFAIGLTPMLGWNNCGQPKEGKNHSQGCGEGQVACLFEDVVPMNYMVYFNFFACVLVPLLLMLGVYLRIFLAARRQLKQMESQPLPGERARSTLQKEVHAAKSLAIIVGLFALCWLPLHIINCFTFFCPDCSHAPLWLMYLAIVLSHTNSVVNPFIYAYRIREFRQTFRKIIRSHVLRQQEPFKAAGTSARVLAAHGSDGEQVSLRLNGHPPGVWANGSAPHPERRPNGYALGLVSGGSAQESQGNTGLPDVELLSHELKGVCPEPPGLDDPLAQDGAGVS

SMILES	Ki [1]	Ki [2, 3]	Ki(A1)/Ki(A2a) [2]	Ki [2]
Cc1ncnc2ccc(-c3ccc(N)nc3-c3ccc(F)cc3)cc12 [Compound 1, 6-(4-fluorophenyl)-5-(4-methylquinazolin-6-yl)pyridin-2-amine]	3250 nM	9.6 nM	339.0	
Cc1ncnc2ccc(-c3cc(F)c(N)nc3-c3ccc(F)cc3)cc12 [Compound 2, 3-fluoro-6-(4-fluorophenyl)-5-(4-methylquinazolin-6-yl)pyridin-2-amine]	698 nM	2.7 nM	258.6	
Cc1ncnc2ccc(-c3cnc(N)nc3-c3ccc(F)cc3)cc12 [Compound 3, 4-(4-fluorophenyl)-5-(4-methylquinazolin-6-yl)pyrimidin-2-amine]	178 nM	1.6 nM	111.3	
Cc1ncnc2ccc(-c3cc(F)c(NC(=O)N(C)Cc4ccccn4)nc3-c3ccc(F)cc3)cc12 [Compound 4, 3-(3-fluoro-6-(4-fluorophenyl)-5-(4-methylquinazolin-6-yl)pyridin-2-yl)-1-methyl-1-(pyridin-2-ylmethyl)urea]	5680 nM		417.3	13.6 nM
CNC(=O)Nc1ncc(-c2ccc3ncnc(C)c3c2)c(-c2ccc(F)cc2)n1 [Compound 5, 1-(4-(4-fluorophenyl)-5-(4-methylquinazolin-6-yl)pyrimidin-2-yl)-3-methylurea]	> 7920 nM	15.6 nM	>507.5	
Cc1ncnc2ccc(-c3cnc(NC(=O)NCc4ccccn4)nc3-c3ccc(F)cc3)cc12 [Compound 6, 1-(4-(4-fluorophenyl)-5-(4-methylquinazolin-6-yl)pyrimidin-2-yl)-3-(pyridine-2-methyl)urea]	> 7920 nM	14.3 nM	>553.6	
Cc1ncnc2ccc(-c3cnc(NC(=O)N(C)Cc4ccccn4)nc3-c3ccc(F)cc3)cc12 [Compound 9, 3-(4-(4-fluorophenyl)-5-(4-methylquinazolin-6-yl)pyrimidin-2-yl)-1-methyl-1-(pyridine-2-methyl)urea]	1230 nM	3.7 nM	331.8	
Cc1ncnc2ccc(-c3cnc(NC(=O)N4CCC(C#N)CC4)nc3-c3ccc(F)cc3)cc12 [Compound 10, 4-cyano-N-(4-(4-fluorophenyl)-5-(4-methylquinazolin-6-yl)pyrimidin-2-yl) piperidine-1-carboxamide]	690 nM	4.7 nM	146.8	
Cc1ncnc2ccc(-c3cnc(NC(=O)N(C)c4ccccc4)nc3-c3ccc(F)cc3)cc12 [Compound 12, 3-(4-(4-fluorophenyl)-5-(4-methylquinazolin-6-yl)pyrimidin-2-yl)-1-methyl-1-phenylurea]	1210 nM	8.8 nM	137.6	
COC1CCN(C(=O)Nc2ncc(-c3ccc4ncnc(C)c4c3)c(-c3ccc(F)cc3)n2)CC1 [Compound 13, N-(4-(4-fluorophenyl)-5-(4-methylquinazolin-6-yl)pyrimidin-2-yl)-4-methoxypiperidine-1-carboxamide]	1320 nM	9.8 nM	134.5	
Cc1cc(-c2cnc(NC(=O)N(C)Cc3ccccn3)nc2-c2ccc(F)cc2)cc(Cl)n1 [Compound 14, 3-(5-(2-chloro-6-methylpyridin-4-yl)-4-(4-fluorophenyl)pyrimidin-2-yl)-1-methyl-1-(pyridin-2-ylmethyl)urea]	5310 nM	8.1 nM	656.1	
CN(Cc1ccccn1)C(=O)Nc1ncc(-c2cc(Cl)nc(C(F)(F)F)c2)c(-c2ccc(F)cc2)n1 [Compound 16, 3-(5-(2-chloro-6-(trifluoromethyl)pyridin-4-yl)-4-(4-fluorophenyl)pyrimidin-2-yl)-1-methyl-1-(pyridin-2-ylmethyl)urea]	7770 nM	21.5 nM	361.6	
Cc1cc(-c2cnc(N)nc2-c2ccc(F)cc2)cc(Cl)n1 [Compound 17, 5-(2-chloro-6-methylpyridin-4-yl)-4-(4-fluorophenyl)pyrimidin-2-amine]	205 nM	4.6 nM	44.5	
Cc1cc(-c2cnc(NC(=O)N3CCC(C#N)CC3)nc2-c2ccc(F)cc2)cc(Cl)n1 [Compound 18, N-(5-(2-chloro-6-methylpyridin-4-yl)-4-(4-fluorophenyl)pyrimidin-2-yl)-4-cyanopiperidine-1-carboxamide]	3070 nM	18.9 nM	162.5	
Cc1cc(Cl)cc(-c2cnc(NC(=O)N3CCC(N4CCCCC4)CC3)nc2-c2ccc(F)cc2)c1 [Compound 21, N-(5-(3-chloro-5-methylphenyl)-4-(4-fluorophenyl)pyrimidin-2-yl)-[1,4′-dipiperidine]-1′-carboxamide]	4670 nM	7.3 nM	639.1	
Cc1cc(Cl)cc(-c2cnc(NC(=O)N3CCC(N4CCCCC4)CC3)nc2-c2ccc(C)o2)c1 [Compound 22, N-(5-(3-chloro-5-methylphenyl)-4-(5-methylfuran-2-yl)pyrimidin-2-yl)-[1,4′-bipiperidine]-1′-carboxamide]	1590 nM	6.6 nM	240.7	
Cc1ncnc2ccc(-c3nnc(NC(=O)N(C)Cc4ccccn4)nc3-c3ccc(F)cc3)cc12 [Compound 24, 3-(5-(4-fluorophenyl)-6-(4-methylquinazolin-6-yl)-1,2,4-triazolin-3-yl)-1-methyl-1-(pyridine-2-methyl)urea]	3730 nM		139.1	26.8 nM
Cc1ccc(-c2nc(NC(=O)N(C)Cc3ccccn3)nnc2-c2ccc3ncnc(C)c3c2)o1 [Compound 25, 1-methyl-3-(5-(5-methylfuran-2-yl)-6-(4-methylquinazolin-6-yl)-1,2,4-triazin-3-yl)-1-(pyridin-2-yl-methyl)urea]	178 nM		45.7	3.9 nM
Cc1cc(-c2nnc(NC(=O)N3CCC(N4CCCCC4)CC3)nc2-c2ccc(C)o2)cc(Cl)n1 [Compound 26, N-(6-(2-chloro-6-methylpyridin-4-yl)-5-(5-methylfuran-2-yl)-1,2,4-triazin-3-yl)-[1,4′-bipiperidine]-1′-carboxamide]	4000 nM	9.9 nM	403.8	
Cc1ccc(-c2nc(NC(=O)N3CCC(N4CCCCC4)CC3)nnc2-c2ccc3ncnc(C)c3c2)o1 [Compound 27, N-(5-(5-methylfuran-2-yl)-6-(4-methylquinazolin-6-yl)-1,2,4-triazin-3-yl)-[1,4′-bipiperidine]-1′-carboxamide]	422 nM	4 nM	105.5	
Cc1cc(Cl)cc(-c2nnc(NC(=O)N3CCC(N4CCCCC4)CC3)nc2-c2ccc(C)o2)c1 [Compound 28, N-(6-(3-chloro-5-methylphenyl)-5-(5-methylfuran-2-yl)-1,2,4-triazin-3-yl)-[1,4′-bipiperidine]-1′-carboxamide]	1780 nM	9 nM	197.5	
Cc1ncnc2ccc(-c3ccc(NC(=O)N(C)Cc4ccccn4)nc3-c3ccc(F)cc3)cc12 [Compound 29, 3-(6-(4-fluorophenyl)-5-(4-methylquinazolin-6-yl)pyridin-2-yl)-1-methyl-1-(pyridine-2-methyl)urea]	5030 nM		425.9	11.8 nM
